Source: US20060174366A1, “Use of ahas mutant genes as selection marker in potato transformation” (priority 2002, published 2006)

How the values were obtained:
[1] = system: in vitro potato leaf segments; experiment: Effect of Imazamox on plant cell growth in tissue culture; format: cell-based, Solanum tuberosum
Text: Leaf segments are the explants of choice used in Agrobacterium mediated potato transformation. Transgenic plants are regenerated via direct or indirect organogenesis under selective conditions. Cytokinines as growth hormones are mainly involved in provoking cell division and adventitious bud formation in in vitro potato leaf segments. […] This phenomenon classifies Imazamox as a unique selection agent that is combining both lethality for non-transgenic cells and improved growth for transgenic cells.

[2] = system: Potato leaf segments of varieties Prevalent, Producent, Karnico and Desiree; experiment: Investigation of selection pressure: lethality of Imazamox concentrations on shoot regeneration from untransformed leaf segments; format: cell-based, Solanum tuberosum
Procedure: Potato leaf segments from in vitro propagated plants of four different potato varieties Prevalent, Producent, Karnico and Desiree were tested for natural tolerance on different concentrations of the imidazolinone herbicide Imazamox. It is important to choose a selection concentration at which the potato leaf tissue is viable long enough to regenerate shoots but have a high enough concentration to prevent the regeneration of untransformed shoots. Doses 0.1, 0.5, 1, 5, 10, 20, 30 and 50 μM Imazamox were tested.
Fully expended potato leaves are diagonally cut in 2 pieces and precultivated on MC-plates for 2 to 3 days at 23 to 24° C., see table 1.
The leaf tissues are transferred on MS300 medium for additional 2 days and cultivated under modest light at 23 to 24° C. simulating a co-cultivation step. Subsequently the leaf segments are moved to MS400 plates containing 400 mg/l Claforan. Claforan is added in order to suppress growth of Agrobacterium tumfaciens. Therefore the regeneration of shoots on different concentrations of Imazamox need to be monitored in presence of Claforan. Selection is taking place within 4 to 5 days when the explants are moved to MS400 medium supplemented with 400mg/l Claforan and Imazamox at above concentrations.
The explants are transferred to fresh selection medium every fortnight.
Leaf tissues were tested for the use of the AHAS resistance gene contained in SEQ ID No. 1 and for the selection of transgenic potato plant cells as described above. Four different potato cultivars Prevalent, Producent, Karnico and Desiree were cultivated on different concentrations of Imazamox, an imidazolinones type herbicides. It is essential to use the proper concentration for selection to yield an acceptable number of shoots per explant without high escape rate. The lethality of various Imazamox concentrations on regeneration was evaluated.
Lethal dose for regeneration was detected within 0.1 to 1 μM ranges of concentrations. Slight variation in lethality was detected between varieties. […]

With COCc1cnc(C2=NC(C)(C(C)C)C(=O)N2)c(C(=O)O)c1 (racemic) [Imazamox, (RS)-2-(4-isopropyl-4-methyl-5-oxo-2-imidazolin-2-yl)-5-methoxymethylnicotinic acid] the “effect in tissue culture” value ([1]; applied in low concentrations) was “cytokinine-like effect”, the “effect in tissue culture” value ([1]; at higher concentrations) was “acting as an herbicide” and the lethality in regeneration ([2]; 0.3 μM Imazamox) was 80%. The lethality in regeneration ([2]; 0.5 μM Imazamox) was 100% and the Regeneration ([2]; 0.5 μM Imazamox included in the medium) was “No regeneration”.
